Measured values reported in patent publication US7476685B2, “Pyridine carboxamide derivatives and their use as pesticides” (Merial Limited, priority 2002, dated 2009).

Key:
[1] = system: black bean aphids (Aphis fabae); assay: Method A: field bean plants and black bean aphids dipped into aqueous solution of the formulated preparation; assay type: in vivo; settings: 100 ppm (content of active compound), plants (Vicia faba) and aphids dipped 5 seconds, after 3 and 6 days of storage, read-out: mortality among the aphids
Experimental: Germinated field bean seeds (Vicia faba) with seed roots were transferred into brown glass bottles filled with tap water and then populated with about 100 black bean aphids (Aphis fabae). Plants and aphids were then dipped into an aqueous solution of the formulated preparation to be examined for 5 seconds. After they had drained, plants and animals were stored in a climatized chamber (16 hours of light/day, 25° C., 40-60% relative atmospheric humidity). After 3 and 6 days of storage, the effect of the preparation on the aphids was determined.

[2] = system: black bean aphids (Aphis fabae); assay: Method B: root-systemic action against black bean aphids on field bean, preparation pipetted into the water; assay type: in vivo; settings: 10 ppm (content of active compound), 4 ml solution pipetted into bottle with Vicia faba roots, after 3 and 6 days of storage, read-out: mortality among the aphids, by root-systemic action
Experimental: Germinated field bean seeds (Vicia faba) with seed roots were transferred into brown glass bottles filled with tap water. Four milliliters of an aqueous solution of the formulated preparation to be examined were pipetted into the brown glass bottle. The field bean was then heavily populated with about 100 black bean aphids (Aphis fabae). Plants and aphids were then stored in a climatized chamber (16 hours of light/day, 25° C., 40-60% relative atmospheric humidity). After 3 and 6 days of storage, the root-systemic effect of the preparation on the aphids was determined.

Compound	mortality at 100 ppm [1]	mortality at 10 ppm [2]
O=C(NC(=S)OCC(F)(F)F)c1cnccc1C(F)(F)F [Compound X-45, 2,2,2-trifluoroethyl N-(4-trifluoromethyl-3-pyridylcarbonyl)thiocarbamate]	≥ 50%	≥ 80%
CN(C(=S)NC(=O)c1cnccc1C(F)(F)F)c1ccccc1 [Compound B-349, 1-methyl-1-phenyl-3-(4-trifluoromethyl-3-pyridylcarbonyl)thiourea]	≥ 50%	≥ 80%
CC(C)N1OCCN(C(=O)c2cnccc2C(F)(F)F)C1=O [Compound U-3, 2-isopropyl-4-(4-trifluoromethyl-3-pyridylcarbonyl)-perhydro-1,2,4-oxadiazin-3-one]	≥ 50%	≥ 80%
CON(C)C(=O)NC(=O)c1cnccc1C(F)(F)F [Compound A-313, 1-methyl-1-methoxy-3-(4-trifluoromethyl-3-pyridylcarbonyl)urea]		≥ 80%
C=CCN(C(=O)c1cnccc1C(F)(F)F)C(=O)N(C)OC [Compound E-85, 1-methyl-1-methoxy-3-allyl-3-(4-trifluoromethyl-3-pyridylcarbonyl)urea]	≥ 50%	≥ 80%
CC(C)N(O)C(=O)NC(=O)c1cnccc1C(F)(F)F [Compound A-540, 1-hydroxyl-1-isopropyl-3-(4-trifluoromethyl-3-pyridylcarbonyl)urea]	≥ 50%	≥ 80%
O=C(NC(=O)N(CCO)Cc1ccccc1)c1cnccc1C(F)(F)F [Compound A-862, 1-benzyl-1-(2-hydroxyethyl)-3-(4-trifluoromethyl-3-pyridylcarbonyl)urea]	≥ 50%	≥ 80%
